According to article PMC6155776, “Synthesis of Novel Pyrazinamide Derivatives Based on 3-Chloropyrazine-2-carboxamide and Their Antimicrobial Evaluation” (Molecules : A Journal of Synthetic Chemistry and Natural …, 2017):
Values after ≈ are worked out from the molar mass of the structure shown. Values joined by “and” are separate entries in the source; they are usually repeats but may differ in a detail not shown here. Identical values can stand only once. Like-named read-outs stand apart in the source and are kept apart here.

Assays:
[1] = tested on: Mycobacterium smegmatis CCM 4622 (ATCC 607); test: Mycobacterium smegmatis screening, microdilution broth panel method with resazurin; type: cell-based; conditions: Middlebrook 7H9 broth, 48 h incubation; for MIC: Mycolicibacterium smegmatis, 48 h, read-out: Minimum Inhibitory Concentrations M. smegmatis
[2] = tested on: M. tbc H37Rv; conditions: cited from earlier work
[3] = tested on: Enterococcus faecalis J 14365/08; test: Antibacterial screening, microdilution broth panel method; type: cell-based; conditions: J14365/08; Enterococcus faecalis J 14365/08, pH 7.0; read-out: Minimum Inhibitory Concentrations Bacteria, EF
[4] = tested on: Mycobacterium tuberculosis H37Rv; test: Antimycobacterial screening, microdilution broth panel method with resazurin (Alamar blue); type: cell-based; conditions: for MIC: read-out: Minimum Inhibitory Concentrations M. tbc H37Rv
[5] = Experimental lipophilicity logk by RP-HPLC; conditions: methanol 70% / water 30%, C18
Description: These values were compared with logk, an experimentally measured lipophilicity parameter derived from retention times acquired by RP-HPLC.
Experimental lipophilicity parameter logk values were determined using HPLC method. […] The separation process was handled by Agilent ChemStation, version B.04.02 extended with spectral module (Agilent Technologies Inc.). A mixture of methanol (HPLC grade, 70%) and water (HPLC-Milli-Q Grade, 30%) was used as mobile phase. The total flow rate of the column was set to 1.0 mL/min, injection 20 μL, column temperature 30 °C. 210 nm as detection wavelength and 270 nm as monitor wavelength were chosen. A methanolic solution of KI was used for the determination of dead time (TD). Retention times (TR) of synthesized compounds were measured in minutes. Capacity factors k were calculated according to formula k = (TR − TD)/TD, where TR is the retention time of the solute and TD denotes the dead time obtained via an unretained analyte (KI). Logk, which was calculated from the capacity factor k, is used as the lipophilicity index.

[6] = tested on: M. kansasii My 235/80; test: Antimycobacterial screening, microdilution broth panel method with resazurin (Alamar blue); type: cell-based; conditions: Mycobacterium kansasii, MY235/80; pH 5.6, 5–7 days incubation
[7] = in vitro; conditions: human, IC50 (cytotoxicity), HepG2, 24 h incubation
[8] = tested on: eight common bacterial strains; test: Antibacterial screening, microdilution broth panel method; type: cell-based; conditions: all tested bacterial strains, pH 7.0; read-out: Minimum Inhibitory Concentrations Bacteria
[9] = tested on: Staphylococcus aureus CCM 4516/08; test: as above; type: cell-based
[10] = tested on: HepG2 cell line; conditions: read-out: IC50 (cytotoxicity); HepG2, 24 h incubation
[11] = Mycobacterium tuberculosis, H37RV, 336 h, pH 5.6, Sula's broth pH 5.6, 14 days incubation
[12] = Mycobacterium tuberculosis, H37RV, 336 h, pH 5.6, Sula's broth pH 5.6, 14 days incubation, n.a. = not active

SMILES | MIC [1] [µg/mL] | MIC [4, 11] [µg/mL] | Logk [5] | MIC [8] [µM] | further results
O=C(O)c1cn(C2CC2)c2cc(N3CCNCC3)c(F)cc2c1=O [CPX, ciprofloxacin, reference compound] | 0.1 (≈ 0.302 µM) | – | – | – | Minimum Inhibitory Concentrations M. smegmatis [1]: 0.10 to 0.20 µg/mL
Cc1ccc(CNc2nc(C#N)cnc2C#N)cc1 [Compound 8-B] | – | – | – | – | MIC against M. tbc H37Rv ([2]; series A and B): 6.25 µg/mL and 25 µM
COc1ccc(CNc2nccnc2C(N)=O)c(OC)c1 [Compound 14, 3-[(2,4-Dimethoxybenzyl)amino]pyrazine-2-carboxamide] | ≥ 500 | > 100 | 0.274 | – | MIC [3]: 62.5 µM (≈ 18 µg/mL)
Cc1nc(C#N)c(C#N)nc1NCc1ccccc1 [Compound 1-C] | – | – | – | – | MIC against M. tbc H37Rv ([2]; series C): 25 µg/mL and 100 µM
N#Cc1cnc(C(N)=O)c(NCc2cccc(C(F)(F)F)c2)n1 [Compound 4-A] | – | – | – | – | MIC against M. tbc H37Rv ([2]; series A and B): 25 µg/mL and 78 µM
Cc1ccc(CNc2nc(C#N)cnc2C(N)=O)cc1 [Compound 8-A] | – | – | – | – | MIC against M. tbc H37Rv ([2]; series A and B): 12.5 µg/mL and 47 µM
Cc1ccc(CNc2nc(C#N)c(C#N)nc2C)cc1 [Compound 8-C] | – | – | – | – | MIC against M. tbc H37Rv ([2]; series C): 25 µg/mL and 95 µM
NNC(=O)c1ccncc1 [INH, isoniazid, reference compound] | – | 0.39 | – | – | Minimum Inhibitory Concentrations M. smegmatis [1]: 7.81 to 15.63 µg/mL; Minimum Inhibitory Concentrations M. smegmatis ([1]; listed as isoniazid): 15.63 µg/mL; MIC [6]: 1.56 µg/mL to 12.5 µg/mL and 11 µM to 91 µM; MIC [4, 12]: 3 µM
NC(=O)c1nccnc1NCc1ccc(N)cc1 [Compound 9, 3-[(4-Aminobenzyl)amino]pyrazine-2-carboxamide] | 250 (≈ 1030 µM) | – | −0.313 | > 500 | IC50 [7]: > 750 µM
NC(=O)c1nccnc1NCc1ccc(Cl)cc1 [Compound 5, 3-[(4-Chlorobenzyl)amino]pyrazine-2-carboxamide] | 250 (≈ 952 µM) | > 100 | 0.373 | – | –
NC(=O)c1nccnc1NCc1ccc(Cl)c(Cl)c1 [Compound 3, 3-[(3,4-Dichlorobenzyl)amino]pyrazine-2-carboxamide] | ≥ 500 | > 100 | 0.470 | > 500 | –
Cc1ccccc1CNc1nccnc1C(N)=O [Compound 6, 3-[(2-Methylbenzyl)amino]pyrazine-2-carboxamide] | ≥ 500 | > 100 | 0.320 | > 500 | –
N#Cc1cnc(C#N)c(NCc2ccccc2)n1 [Compound 1-B] | – | – | – | – | MIC against M. tbc H37Rv ([2]; series A and B): 12.5 µg/mL (≈ 53.1 µM)
NC(=O)c1nccnc1NCc1cccc(C(F)(F)F)c1 [Compound 4, 3-[(3-Trifluoromethylbenzyl)amino]pyrazine-2-carboxamide] | 250 (≈ 844 µM) | – | 0.403 | – | IC50 [7]: 76.5 µM; MIC [6]: 25 µg/mL and 84 µM; Minimum Inhibitory Concentrations Bacteria, SA ([9]; Staphylococcus aureus CCM 4516/08, pH 7.0): 31.25 SA ^a µM; MIC ([9]; Staphylococcus aureus, CCM4516, pH 7, Staphylococcus aureus CCM 4516/08, pH 7.0, read-out: Minimum Inhibitory Concentrations Bacteria, SA): 31.2 µM (≈ 9.26 µg/mL)
NC(=O)c1nccnc1NCc1ccccc1 [Compound 1, 3-(Benzylamino)pyrazine-2-carboxamide] | ≥ 500 | ≥ 100 | 0.215 | > 500 | –
NC(=O)c1cnccn1 [PZA, pyrazinamide] | ≥ 500 | 12.5 | – | – | MIC [4, 12]: 102 µM
Cc1ccc(CNc2nccnc2C(N)=O)cc1 [Compound 8, 3-[(4-Methylbenzyl)amino]pyrazine-2-carboxamide] | ≥ 500 | 1.56 to 12.5 | 0.441 | > 500 | IC50 [7]: ≥ 250 µM; IC50 [10]: > 250 µM; MIC [4, 12]: 6 to 42 µM; Minimum Inhibitory Concentrations M. tbc H37Rv ([4]; Sula's broth pH 5.6, 14 days incubation): 1.56 µg/mL; MIC ([4]; Sula's broth pH 5.6, 14 days incubation, n.a. = not active): 6 µM
NC(=O)c1nccnc1NCc1cccc(Cl)c1 [Compound 2, 3-[(3-Chlorobenzyl)amino]pyrazine-2-carboxamide] | ≥ 500 | > 100 | 0.373 | > 500 | –
Cc1nc(C#N)c(C#N)nc1NCc1ccc(N)cc1 [Compound 9-C] | – | – | – | – | MIC against M. tbc H37Rv ([2]; series C): 25 µg/mL and 95 µM
Cc1nc(C#N)c(C#N)nc1NCc1cccc(C(F)(F)F)c1 [Compound 4-C] | – | – | – | – | MIC against M. tbc H37Rv ([2]; series C): 12.5 µg/mL and 39 µM
NC(=O)c1nccnc1NCc1cccc([N+](=O)[O-])c1 [Compound 15, 3-[(3-Nitrobenzyl)amino]pyrazine-2-carboxamide] | ≥ 500 | > 100 | 0.101 | > 500 | –
CO[C@H]1/C=C/O[C@@]2(C)Oc3c(C)c(O)c4c(O)c(c(/C=N/N5CCN(C)CC5)c(O)c4c3C2=O)NC(=O)/C(C)=C\C=C\[C@H](C)[C@H](O)[C@@H](C)[C@@H](O)[C@@H](C)[C@H](OC(C)=O)[C@@H]1C [RFM, rifampicin, reference compound] | 0.39 (≈ 0.474 µM) | – | – | – | Minimum Inhibitory Concentrations M. smegmatis [1]: 0.78 to 1.56 µg/mL
NC(=O)c1nccnc1NCc1ccc(C(F)(F)F)cc1 [Compound 12, 3-[(4-Trifluoromethylbenzyl)amino]pyrazine-2-carboxamide] | ≥ 500 | – | 0.502 | – | IC50 [7]: 57.3 µM; MIC [3]: 125 µM (≈ 37 µg/mL)
N#Cc1cnc(C(N)=O)c(NCc2ccc(N)cc2)n1 [Compound 9-A] | – | – | – | – | MIC against M. tbc H37Rv ([2]; series A and B): 12.5 µg/mL and 47 µM
N#Cc1cnc(C#N)c(NCc2ccc(N)cc2)n1 [Compound 9-B] | – | – | – | – | MIC against M. tbc H37Rv ([2]; series A and B): 25 µg/mL and 100 µM
NC(=O)c1nccnc1NCc1ccccc1F [Compound 11, 3-[(2-Fluorobenzyl)amino]pyrazine-2-carboxamide] | ≥ 500 | > 100 | 0.248 | – | MIC [3]: 125 µM (≈ 30.8 µg/mL)
NC(=O)c1nccnc1NCc1ccccc1Cl [Compound 10, 3-[(2-Chlorobenzyl)amino]pyrazine-2-carboxamide] | ≥ 500 | > 100 | 0.441 | > 500 | –
NC(=O)c1nccnc1NCc1ccccc1C(F)(F)F [Compound 13, 3-[(2-Trifluoromethylbenzyl)amino]pyrazine-2-carboxamide] | ≥ 500 | > 100 | 0.495 | – | MIC [3]: 125 µM (≈ 37 µg/mL)
COc1ccc(CNc2nccnc2C(N)=O)cc1 [Compound 7, 3-[(4-Methoxybenzyl)amino]pyrazine-2-carboxamide] | ≥ 500 | > 100 | 0.194 | > 500 | –
